Measured values published in US20250144049A1, “METHODS, COMPOSITIONS, AND USES RELATED TO THE TREATMENT AND PREVENTION OF LEIGH SYNDROME” (Stealth BioTherapeutics Inc., priority 2023, published 2025).

Experiments:
[1] = tested on: reverse electron transfer (RET) from Complex II to Complex I in isolated murine brain mitochondria; assay: Reverse electron transfer (RET) assay, H2O2 (ROS) production; format: biochemical, mouse
Protocol: For mitochondria isolation, brains were dissected at a local vivarium (Explora, MA, USA) from C57BL/6 mice that were supplied by The Jackson Laboratory (Maine, USA). Brains were collected on ice in cold mitochondria isolation buffer (225 mM mannitol, 75 mM sucrose, 5 mM HEPES, 1 mM EGTA, pH 7.4). In a glass petri dish, brains were mixed with a few drops of buffer and cut into small pieces resembling a mash using scissors. Mitochondrial isolation buffer was added at 1:10-1:20 (w/v) and tissue mash was transferred to a glass Dounce tissue homogenizer and further homogenized with 10-15 strokes. Mash was centrifuged at 1,000×g for 10 min to pellet and remove cellular debris, etc. Supernatant was transferred into 2.0 mL tubes and centrifuged at 10,000×g. The mitochondria pellet was resuspended in the desired amount of miR05 buffer (Oroboros, Innsbruck, Austria) and added directly to the Oroboros oxygraph-2K (Oroboros, Innsbruck, Austria) for an experiment or maintained on ice for up to 4 hours.
All high-resolution respirometry experiments were conducted using the Oroboros O2k-Fluorespirometer (Oroboros, Innsbruck, Austria). The Oroboros O2k-Fluorespirometer was calibrated daily using the air calibration protocol on DatLab 7.4 (Oroboros, Innsbruck, Austria). Prior to each experiment requiring the fluorescence module, the AmpR calibration protocol from DatLab 7.4 was used to calibrate the fluorescence signal. Initial data analysis, including setting of marks, was performed using DatLab 7.4.
Reverse electron transfer (RET) was measured using HRR with the Oroboros O2k and DatLab 7.4. To configure the Amp channel, the light or “Fluo intensity” was set at 1000 and the amplification of signal or “Gain for Fluo sensor” at 500 and illumination in the chamber was turned “off”. To calibrate the Fluo sensors, the Instrument protocol “AmR calibration” was used. […]
Statistical analysis was performed using GraphPad Prism 9. […] RET Assay data were analyzed by 2-way ANOVA using a p-value of 0.05. […]

[2] = tested on: 15-lipoxygenase (15-LO); assay: 15(S)-HETE ELISA following RSL3 treatment, Leigh fibroblasts; format: cell-based, human; details: 700 nM RSL3, 1 μM compound, FIG. 11
Protocol: Samples for the 15(S)-HETE ELISA were generated by the RSL3 cytoprotection assay described above. Healthy or Leigh fibroblasts were resuspended in assay medium, seeded at 200,000 cells per well in a clear, tissue culture-treated, 24-well plate. Cells were incubated at 37° C. for 24 hours. Supernatant was aspirated from each well following the incubation.
Fibroblasts from both a healthy individual and a patient diagnosed with Leigh syndrome were examined (but not all compounds were examined in each cell type). Activation of ferroptosis has been implicated as a driver of epilepsy, which is commonly associated with Leigh syndrome. […] Kahn-Kirby et al. PLOS One. […] As a key regulator of ferroptosis, 15-LO serves as a rational therapeutic target in Leigh syndrome.

[3] = tested on: Healthy (GM08402) fibroblasts; assay: Erastin cytoprotection assay, healthy fibroblasts; format: cell-based, human; details: 2 μM erastin, 24 hours, FIG. 12
Protocol: (§1) Briefly, Healthy (GM08402) or Leigh (GM03672) fibroblasts were resuspended in assay medium, seeded at 10,000 cells per well in a clear, tissue cultured-treated, 96-well plate, and incubated at 37° C. overnight. Following the incubation, supernatant was manually aspirated from wells, taking care not to disrupt cells. Fibroblasts were co-treated in a final volume of 100 μL with 2 μM erastin (Millipore Corp., Cat #), 250 μM ferric ammonium citrate (FAC), 50 µM ascorbic acid (AA), and a titration of one of each of Compounds 1 to 4 or Vatiquinone ranging from 10 to 1000 nM. Following another 24-hour incubation at 37° C., cell viability was measured using the CellTiter-Glo Luminescent Cell Viability Kit (ProMega) per Manufacturer's instructions. Luminescence units were quantified by GEN5 software on a BioTek SYNERGY neo2 plate reader (LUM filter).
(§2) Briefly, erastin, like RSL3, is known to induce ferroptosis. […] Erastin was incubated with cell fibroblasts for 24 hours to induce ferroptosis. Cells were co-treated with each of Compounds 1 to 4, or Vatiquinone as the test articles. Test articles were administered at a range of concentrations to derive a curve. Cell viability was determined using a commercially available kit that measures ATP production. […] An increase in cell viability as determined by the assay is considered to be protective against ferroptosis.

[4] = tested on: Leigh (GM03672) fibroblasts; assay: Erastin cytoprotection assay, Leigh fibroblasts; format: cell-based, human; details: 2 μM erastin, 24 hours, FIG. 13
Protocol: as §1, §2

[5] = 2 μM compound prior to addition of succinate (10 mM)

Compound	H2O2 production [1, 5]	15-LO inhibition compared among test articles [2]	protective effect compared among test articles [3]	protective effect compared among test articles [4]	H2O2 production ([1]; 1 μM compound prior to addition of succinate (10 mM))
CC1=C(C)C(=O)C(CC[C@@](C)(O)COCCC[Si](C)(C)C)=C(C)C1=O [Compound 3]	statistically significant reduction	roughly equivalent protective effect	superior in their protective effect	superior in their protective effect	–
CC1=C(C)C(=O)C(CC[C@](C)(O)CCCCCCCCC(F)(F)F)=C(C)C1=O [Compound 4]	statistically significant reduction	roughly equivalent protective effect	about equally protective	about equally protective	statistically significant reduction
